# Measurements: US20250195576A1, “METHOD TO GENERATE MORE EFFICIENT CAR-T CELLS” (INSTITUT NATIONAL DE LA SANTÉ ET DE LA RECHERCHE MÉDICALE, priority 2022, published 2025)
# How the values were obtained:
# [1] = tested on: Human primary T lymphocytes; experiment: Granzyme B expression by intracellular flow cytometry; format: cell-based
# Procedure: (§1) FIGS. 1A to 1C: FOXO1 inhibition allows increase number of cytotoxic T cells and increased their activity. Human primary T lymphocytes from healthy donor (PBT) were treated with AS1842856 (500 nM) or equivalent of DMSO for 7 days. (1A) Cells were surface labeled with anti-CD4 and anti-CD8, next fixed and permeabilized before labeled with antibodies against Granzyme B. The graphs present the values correspond to the mean±SEM obtained with three independent donors. Significance was assessed using a paired Student t-test. (1B) At the end of the culture, cells were stimulated by PMA and ionomycin during three hours. After CD4 and CD8 labelling, intracellular detection of TNF-α was performed using an antibody against TNF-α. The values correspond to the mean±SEM obtained with three independent donors. Significance was assessed using a paired Student t-test. (1C) CD8 T cells from vehicle or treated cells were purified and co-cultured with P815 target cells pre-coated with anti-CD3 mAb, percentage of lysis was evaluated by 51Cr release assay at different effector: target ratios. The values correspond to the mean±SEM obtained with three independent donors. Significance was assessed using 2-way Anova test.
# Cells. […]
# (§2) Flow cytometry. […] After wash with PBS, cells were immediately analyzed by flow cytometry. […] After two washes, cells were run on BD LSRII (BD Biosciences) and analyzed using FlowJo software.
# [2] = tested on: ERK and AKT signaling proteins; experiment: Western blot of ERK and AKT phosphorylation upon TCR stimulation; format: cell-based, human; settings: after TCR stimulation, including at steady state; data not shown
# Procedure: Western blot analysis. Protein expression levels were analyzed by Western blot as described (Froehlich et al. 2016). Blotting with primary was followed by goat-anti-mouse- or goat-anti-rabbit-HRP (Jackson ImmunoReseach) incubation and ECL revelation (GE Healthcare, #RPN2106).
# [3] = tested on: Human primary T lymphocytes; experiment: T cell subsets and immune checkpoint expression by flow cytometry; format: cell-based
# Procedure: PBT were treated with 500 nM of AS1842856 or vehicle only for 7 days. (3A) Memory subsets composition in vehicle or AS1842856 CD4 (upper panel) and CD8 (lower panel) cells. TN are CD45RA+, CD27+, CD95−; TSCM are CD45RA+, CD27+, CD95+; TCM are CD45RA−, CD27+; TEM are CD45RA−, CD27− and Teff are CD45RA+, CD27−. The graphs show the mean percentage±SEM of the different subsets in vehicle or AS1842856 conditions on CD4 (upper panel) and CD8 (lower panel) T cells obtained with five independent donors. Significance was assessed using 1-way Anova test. (3B) CTLA-4, PD-1 and TIGIT expressions on CD4 (upper panel) and CD8 (lower panel) T cells were measured by FACS. The graphs show the MFI±SEM obtained with five independent donors. Significance was assessed using a paired Student t-test.
# (§3) Flow cytometry. Cells were washed and stained with antibodies diluted in PBS (Thermo Fisher Scientific; cat #10010001) supplemented with 0.1% BSA (Sigma-Aldrich, cat #A7030-500G) for 20 minutes at 4° C. After wash with PBS, cells were immediately analyzed by flow cytometry. For intracellular staining, cells were fixed with 4% paraformaldehyde (PFA) for 10 minutes at room temperature, permeabilized using a buffer containing 0.1% Saponin (Sigma-Aldrich, 84510) in PBS and stained after two PBS washes using antibodies diluted in the same saponin buffer for 30 minutes at 4° C. After two washes, cells were run on BD LSRII (BD Biosciences) and analyzed using FlowJo software.
# [4] = tested on: Human primary T lymphocytes; experiment: Chemokine receptor membrane expression by flow cytometry; format: cell-based; settings: data not shown
# Procedure: as §3
# [5] = tested on: Human primary T lymphocytes; experiment: Calcium measurements upon TCR stimulation; format: cell-based; settings: compared to untreated cells; data not shown
# Procedure: Calcium Measurements. T cells were incubated for 20 minutes at 37° C. with 1.5 μM Fura-2/AM (Molecular Probes, F1225). Experiments were performed at 37° C. in mammalian saline buffer (140 mM NaCl, 5 mM KCl, 1 mM CaCl2, 1 mM MgCl2, 20 mM HEPES, 11 mM glucose). Calcium measurements by spectrofluorimetry were performed as previously described (Conche et al. 2009) with a Cary Eclipse spectrofluorimeter (Varian) (excitation: 340 and 380 nm; emission: 510 nm).
# FOXO1 = experiment: CD62L expression by cytometry; format: cell-based, human
# Procedure: Cell transfection. Cells were transfected by nucleofection using the Human T Cell Nucleofector solution (Lonza, VPA-1002) and program U-014 of the Nucleofector AMAXA. For CRISPR, 2×10^6 cells were nucleofected with 75 pmol of Cas9 protein (Thermo Fisher, #A36499) and one RNA guide targeting the FOXO1 gene (Thermo Fisher, #sgRNACRISPR889854_SGM Foxo1) at a 1:1 molar ratio. To induce FOXO1 expression, 5×10^6 cells were transfected with 5 μg DNA of the pEGFP-FOXO1-T24A-S256A-S319A-H215R plasmid (Nagashima et al., 2010) or pEGFP-N1 (clontech) as control. Jurkat T cells (5×106 in RPMI 1640 medium) were electroporated at 260 V, 1000 μF in 4-mm polycarbonate cuvettes (Eurogentec) with 5 μg of the GFP, the triple mutant T24A/S256A/S319A FOX01-GFP (FOXO1-TM-GFP) or the FOXO1-TM-GFP DNA binding mutant plasmids (FOXO1-TM-H215R-GFP) (Fabre et al. 2008). Four hours later, AS1842856 was added or not in the culture. At 48 hours, CD62L expression was analyzed by cytometry.
# Flow cytometry. Cells were washed and stained with antibodies diluted in PBS (Thermo Fisher Scientific; cat #10010001) supplemented with 0.1% BSA (Sigma-Aldrich, cat #A7030-500G) for 20 minutes at 4° C. After wash with PBS, cells were immediately analyzed by flow cytometry. […] After two washes, cells were run on BD LSRII (BD Biosciences) and analyzed using FlowJo software.
# [6] = tested on: Human primary T lymphocytes; experiment: TNF-α intracellular labeling and cytokine secretion (MSD assay); format: cell-based
# Procedure: as §1, §2
# [7] = tested on: Human primary T lymphocytes; experiment: Viability assay (propidium iodide); format: cell-based; settings: in vitro culture
# Procedure: PBT were treated with AS1842856 (500 nM) or vehicle only. Every seven days, some cells from the two conditions were collected and labeled with Propidium Iodide (PI). […] Significance was assessed using 2-way Anova test.
# Viability assay. Cells were collected and propidium iodide was added (10 μg/ml, Invitrogen). Samples were run on FACSCalibur (Becton Dickinson) and analyzed using FlowJo software.
# [8] = tested on: Human primary T lymphocytes; experiment: In vitro proliferation assay (CFSE dilution, anti-CD3/CD28 beads); format: cell-based; settings: data not shown
# Procedure: Proliferation assay. In vitro proliferation assay of primary T cells was assessed by dilution of Cell Trace Fluorescent Green kit (CFSE, Invitrogen, cat #C34554). After two washes in RPMI 1640 GlutaMAX medium, cells were resuspended at 4×10^6 cells per ml in a 5 μM Cell Trace Fluorescent Green solution. Cells were incubated in dark at 37° C. for 20 minutes. After the loading, cells were washed with a volume of hot RPMI medium supplemented with 10% Human AB serum, penicillin and streptomycin (50U/ml and 50 μg/m respectively) corresponding to 5 times the loading volume. Cell suspension was collected and dispensed into 96-wells round-bottom plates (2×10^5 cells per well) and stimulated using anti-CD3/CD28 coated-beads Dynabeads (Invitrogen, #11131D) for 3 days. Samples were run on BD LSR Fortessa and analyzed using FlowJo software. For in vivo proliferation assay, T^AS cells were labeled by dilution of CFSE as for in vitro proliferation assay described above. Then 10^7 CFSE^+ cells per immunodificient NSG mouse (NOD.Cg-Prkde^scid I12rg^tm1WjI/SzJ mouse, cat #JAX: 005557, Charles River) resuspended in 100 μL PBS supplemented by 10% FBS were intravenously injected in the retro-orbital vein. 5, 9 or 12 days after injection, spleens were collected to be minced and meshed on the top of a 40 μm cell strainer (Thermo Fisher, #22363547). […] Data were analyzed using FlowJo software.
compound,measurement,setting,value
CCn1cc(C(=O)O)c(=O)c2c(N)c(F)c(NC3CCCCC3)cc21 [AS1842856],Granzyme B expression in CD8 subset,"[1]; AS1842856 500 nM, 7 days, CD8 T cells",upregulated
same,Increase of granzyme B expression,"[1]; same conditions as Foxo1 invalidation by CRISPR, data not shown",more than two-fold increase
same,Phosphorylation of AKT,[2],hypophosphorylation
same,Phosphorylation of ERK,[2],hyperphosphorylation
same,CTLA-4 expression,[3],no significant modification
same,"Markers of Th1 (T-bet+), Th2 (GATA3+) and Treg (FOXP3+) subsets","[3]; CD4 subsets, data not shown",no significant changes
same,Cells expressing PD1,[3]; after AS1842856 treatment,no more than 10%
same,Naive subset (CD45RA+/CD27+/CD95−),[3]; both CD4 and CD8 T cells,sharp decrease
same,TSCM subset (CD45RA+/CD27+/CD95+),[3]; both CD4 and CD8 T cells,strong increase
same,PD1 expression,[3]; both CD8+ and CD4+ cells,small but significant increase
same,CD8 expression,[3]; data not shown,decreased expression
same,"Tfh (CXCR5+, BcL-6+) subset",[3]; data not shown,slight increase
same,TIGIT expression,[3]; reaching significance only in CD8+ T cells,consistent increase
same,CCR4 membrane expression,[4],increase
same,CCR6 membrane expression,[4],increase
same,CX3CR1 membrane expression,[4],increase
same,CXCR4 membrane expression,[4],significant decrease
same,Calcium influx induced upon TCR stimulation,[5],less rapid and of a lower magnitude
same,CD62L expression in Jurkat T cells with FOXO1 H215R mutant,"FOXO1; Jurkat T cell line transfected with FOXO1 H215R mutant, 48 hours, data not shown",could not be further decreased
same,CD62L expression,FOXO1; primary T cells,decrease
same,"TNF-α expression (percentage of cells, intracellular labeling)","[6]; 500 nM 7 days, then PMA and ionomycin three hours",significantly increased
same,TNF-α secreted in supernatant (MSD assay),[6]; data not shown,confirmed
same,T cell viability,[7],promotes
same,Toxicity on T cells,[7],no toxicity
same,CFSE dilution peaks,[8]; after 60h of stimulation,greater number of CFSE dilution peaks
same,Time to proliferation after stimulation,"[8]; anti-CD3/CD28 beads, CFSE",40 h
